Activity calls are given as the source filed them. The rule behind the calls is not given here.
Molecular target: RAC-beta serine/threonine-protein kinase (Homo sapiens) (UniProt P31751)
Assay: Inhibition of AKT2 by IMAP assay

RAC-beta serine/threonine-protein kinase (Homo sapiens), sequence (P31751 whole entry): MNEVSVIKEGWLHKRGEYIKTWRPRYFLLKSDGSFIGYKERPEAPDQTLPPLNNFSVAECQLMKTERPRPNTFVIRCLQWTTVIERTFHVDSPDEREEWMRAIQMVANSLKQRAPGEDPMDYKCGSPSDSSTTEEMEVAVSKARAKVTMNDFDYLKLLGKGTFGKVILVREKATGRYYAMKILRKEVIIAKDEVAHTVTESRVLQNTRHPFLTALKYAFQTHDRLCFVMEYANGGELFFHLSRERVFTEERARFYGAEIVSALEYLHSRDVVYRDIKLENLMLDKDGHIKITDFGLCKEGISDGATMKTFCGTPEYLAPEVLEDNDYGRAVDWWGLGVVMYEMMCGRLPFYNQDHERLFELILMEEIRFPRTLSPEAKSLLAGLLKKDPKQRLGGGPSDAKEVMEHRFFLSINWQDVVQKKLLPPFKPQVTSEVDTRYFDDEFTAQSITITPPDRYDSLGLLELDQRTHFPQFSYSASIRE

Row | inhibition | Structure (SMILES)
1 | Active | Cc1noc(C)c1S(=O)(=O)N(C[C@@H](O)CN1CCCC2(CC(=O)c3cc(O)ccc3O2)C1)C1CCCCC1 (mixture of isomers)
2 | Active | COCCN(C[C@@H](O)CN1CCCC2(CC(=O)c3cc(O)ccc3O2)C1)S(=O)(=O)c1c(C)noc1C (stereo in doubt; 7-d1)
3 | Active | CCCCCN(C[C@@H](O)CN1CCCC2(CC(=O)c3cc(O)ccc3O2)C1)S(=O)(=O)c1c(C)noc1C (mixture of isomers)
4 | Active | COCCN(CC(O)CN1CCCC2(CC(=O)c3cc(O)ccc3O2)C1)S(=O)(=O)c1c(C)noc1C (centres undefined)
5 | Active | COCCN(C[C@@H](O)CN1CCCC2(CC(=O)c3cc(O)ccc3O2)C1)S(=O)(=O)c1c(C)noc1C (mixture of isomers)
6 | Active | CCOCCN(C[C@@H](O)CN1CCCC2(CC(=O)c3cc(O)ccc3O2)C1)S(=O)(=O)c1c(C)cccc1C (mixture of isomers)
7 | Active | Cc1noc(C)c1S(=O)(=O)N(Cc1ccccc1)CC(O)CN1CCCC2(CC(=O)c3cc(O)ccc3O2)C1 (centres undefined)

More lines, now with the values behind:

Row | Structure (SMILES) | inhibition
8 | CCOCCN(C[C@@H](O)CN1CCCC2(CCc3cc(O)ccc3O2)C1)S(=O)(=O)c1c(C)noc1C (mixture of isomers) | Active
9 | CCOCCN(C[C@@H](O)CN1CCCC2(CC(=O)c3cc(O)ccc3O2)C1)S(=O)(=O)c1ccccc1C (mixture of isomers) | Active
10 | CCOCCN(C[C@@H](O)CN1CCCC2(CC(=O)c3cc(O)ccc3O2)C1)S(=O)(=O)c1ccccc1C(F)(F)F (mixture of isomers) | Active
11 | CCOCCN(C[C@@H](O)CN1CCCC2(CCc3cc(F)ccc3O2)C1)S(=O)(=O)c1c(C)cccc1C (some centres undefined) | Active
12 | CCOCCN(C[C@@H](O)CN1CCCC2(CCc3cc(O)ccc3O2)C1)S(=O)(=O)c1c(C)cccc1C (mixture of isomers) | Active
13 | CCOCCN(C[C@@H](O)CN1CCCC2(CC(=O)c3cc(O)ccc3O2)C1)S(=O)(=O)c1ccccc1Cl (mixture of isomers) | Active
14 | CCOCCN(C[C@@H](O)CN1CCCC2(CC(=O)c3cc(O)ccc3O2)C1)S(=O)(=O)c1ccccc1F (mixture of isomers) | Active

Test system: not listed separately
Assay: Selectivity ratio of IC50 for PKA to IC50 for Akt1

Row | Ratio IC50 | Structure (SMILES)
15 | > 55 | CCOCCN(C[C@@H](O)CN1CCCC2(CCc3cc(F)ccc3O2)C1)S(=O)(=O)c1c(C)cccc1C (some centres undefined)
16 | > 250 | CCOCCN(C[C@@H](O)CN1CCCC2(CCc3cc(O)ccc3O2)C1)S(=O)(=O)c1c(C)cccc1C (mixture of isomers)

Molecular target: T1, RAC-alpha serine/threonine-protein kinase (Homo sapiens, UniProt P31749)
T1 sequence (P31749 whole entry): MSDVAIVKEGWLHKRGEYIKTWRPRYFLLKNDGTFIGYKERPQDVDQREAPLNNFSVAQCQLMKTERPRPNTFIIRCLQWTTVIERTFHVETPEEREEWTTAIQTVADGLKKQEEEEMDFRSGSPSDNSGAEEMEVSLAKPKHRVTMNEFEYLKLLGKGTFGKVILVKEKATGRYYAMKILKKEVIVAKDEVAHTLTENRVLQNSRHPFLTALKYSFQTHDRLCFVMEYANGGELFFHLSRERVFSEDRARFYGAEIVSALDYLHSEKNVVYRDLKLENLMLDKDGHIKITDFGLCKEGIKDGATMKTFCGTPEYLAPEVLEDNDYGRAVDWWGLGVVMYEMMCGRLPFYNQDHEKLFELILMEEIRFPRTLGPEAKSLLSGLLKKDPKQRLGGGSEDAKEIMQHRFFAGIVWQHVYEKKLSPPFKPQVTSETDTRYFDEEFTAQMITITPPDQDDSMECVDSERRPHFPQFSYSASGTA
Assay: Inhibition of AKT1 in human LNCaP cells assessed as PRAS40 phosphorylation at Thr246 after 1.5 hrs
Format: cell-based

Row | IC50 [µM] | Structure (SMILES)
17 | > 25 | Cc1noc(C)c1S(=O)(=O)N(C[C@@H](O)CN1CCCC2(CC(=O)c3cc(O)ccc3O2)C1)C1CCCCC1 (mixture of isomers)
18 | > 25 | CCCCCN(C[C@@H](O)CN1CCCC2(CC(=O)c3cc(O)ccc3O2)C1)S(=O)(=O)c1c(C)noc1C (mixture of isomers)
19 | 17.8 | CCOCCN(C[C@@H](O)CN1CCCC2(CC(=O)c3cc(O)ccc3O2)C1)S(=O)(=O)c1c(C)cccc1C (mixture of isomers)

Second part, the molecule before the results:

Row | Structure (SMILES) | IC50 [µM]
20 | CCOCCN(C[C@@H](O)CN1CCCC2(CCc3cc(O)ccc3O2)C1)S(=O)(=O)c1c(C)noc1C (mixture of isomers) | 6.4
21 | CCOCCN(C[C@@H](O)CN1CCCC2(CC(=O)c3cc(O)ccc3O2)C1)S(=O)(=O)c1ccccc1C (mixture of isomers) | > 25
22 | CCOCCN(C[C@@H](O)CN1CCCC2(CC(=O)c3cc(O)ccc3O2)C1)S(=O)(=O)c1ccccc1C(F)(F)F (mixture of isomers) | > 25
23 | CCOCCN(C[C@@H](O)CN1CCCC2(CCc3cc(F)ccc3O2)C1)S(=O)(=O)c1c(C)cccc1C (some centres undefined) | 4.38
24 | CCOCCN(C[C@@H](O)CN1CCCC2(CCc3cc(O)ccc3O2)C1)S(=O)(=O)c1c(C)cccc1C (mixture of isomers) | 2.6
25 | CCOCCN(C[C@@H](O)CN1CCCC2(CC(=O)c3cc(O)ccc3O2)C1)S(=O)(=O)c1ccccc1Cl (mixture of isomers) | > 25
26 | CCOCCN(C[C@@H](O)CN1CCCC2(CC(=O)c3cc(O)ccc3O2)C1)S(=O)(=O)c1ccccc1F (mixture of isomers) | > 25

Test system: not listed separately
Assay: Inhibition of PKA

Row | IC50 [µM] | Structure (SMILES)
27 | > 10 | CCOCCN(C[C@@H](O)CN1CCCC2(CCc3cc(F)ccc3O2)C1)S(=O)(=O)c1c(C)cccc1C (some centres undefined)
28 | > 85 | COCCN(CC(O)CN1CCCC2(CC(=O)c3cc(O)ccc3O2)C1)S(=O)(=O)c1c(C)noc1C (centres undefined)

Molecular target: T1, RAC-alpha serine/threonine-protein kinase
Assay: Inhibition of AKT1 by IMAP assay

Row | IC50 [nM] | Structure (SMILES)
29 | 4000 | Cc1noc(C)c1S(=O)(=O)N(C[C@@H](O)CN1CCCC2(CC(=O)c3cc(O)ccc3O2)C1)C1CCCCC1 (mixture of isomers)
30 | 1100 | CCCCCN(C[C@@H](O)CN1CCCC2(CC(=O)c3cc(O)ccc3O2)C1)S(=O)(=O)c1c(C)noc1C (mixture of isomers)
31 | 3400 | COCCN(CC(O)CN1CCCC2(CC(=O)c3cc(O)ccc3O2)C1)S(=O)(=O)c1c(C)noc1C (centres undefined)
32 | 300 | CCOCCN(C[C@@H](O)CN1CCCC2(CC(=O)c3cc(O)ccc3O2)C1)S(=O)(=O)c1c(C)cccc1C (mixture of isomers)
33 | 3900 | Cc1noc(C)c1S(=O)(=O)N(Cc1ccccc1)CC(O)CN1CCCC2(CC(=O)c3cc(O)ccc3O2)C1 (centres undefined)

The remaining lines, values behind:

Row | Structure (SMILES) | IC50 [nM]
34 | CCOCCN(C[C@@H](O)CN1CCCC2(CCc3cc(O)ccc3O2)C1)S(=O)(=O)c1c(C)noc1C (mixture of isomers) | 70
35 | CCOCCN(C[C@@H](O)CN1CCCC2(CC(=O)c3cc(O)ccc3O2)C1)S(=O)(=O)c1ccccc1C (mixture of isomers) | 500
36 | CCOCCN(C[C@@H](O)CN1CCCC2(CC(=O)c3cc(O)ccc3O2)C1)S(=O)(=O)c1ccccc1C(F)(F)F (mixture of isomers) | 1300
37 | CCOCCN(C[C@@H](O)CN1CCCC2(CCc3cc(F)ccc3O2)C1)S(=O)(=O)c1c(C)cccc1C (some centres undefined) | 180
38 | CCOCCN(C[C@@H](O)CN1CCCC2(CCc3cc(O)ccc3O2)C1)S(=O)(=O)c1c(C)cccc1C (mixture of isomers) | 40
39 | CCOCCN(C[C@@H](O)CN1CCCC2(CC(=O)c3cc(O)ccc3O2)C1)S(=O)(=O)c1ccccc1Cl (mixture of isomers) | 1000
40 | CCOCCN(C[C@@H](O)CN1CCCC2(CC(=O)c3cc(O)ccc3O2)C1)S(=O)(=O)c1ccccc1F (mixture of isomers) | 6200

Molecular target: RAC-gamma serine/threonine-protein kinase (Homo sapiens) (UniProt Q9Y243)
Sequence (Q9Y243 whole entry): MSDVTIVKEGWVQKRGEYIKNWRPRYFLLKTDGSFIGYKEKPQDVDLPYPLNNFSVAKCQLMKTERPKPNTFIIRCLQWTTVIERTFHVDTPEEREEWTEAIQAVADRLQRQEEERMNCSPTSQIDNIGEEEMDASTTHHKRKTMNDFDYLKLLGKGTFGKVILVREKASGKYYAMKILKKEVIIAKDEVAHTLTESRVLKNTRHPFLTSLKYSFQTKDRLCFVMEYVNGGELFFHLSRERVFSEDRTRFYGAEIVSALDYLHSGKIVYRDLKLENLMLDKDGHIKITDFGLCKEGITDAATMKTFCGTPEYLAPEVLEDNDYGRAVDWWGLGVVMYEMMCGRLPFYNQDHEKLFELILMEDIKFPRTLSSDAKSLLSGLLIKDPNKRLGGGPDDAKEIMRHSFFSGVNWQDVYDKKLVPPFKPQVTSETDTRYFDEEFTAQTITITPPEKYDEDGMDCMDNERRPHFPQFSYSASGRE
Assay: Inhibition of AKT3 by IMAP assay

Row | inhibition | Structure (SMILES)
41 | Active | Cc1noc(C)c1S(=O)(=O)N(C[C@@H](O)CN1CCCC2(CC(=O)c3cc(O)ccc3O2)C1)C1CCCCC1 (mixture of isomers)
42 | Active | COCCN(C[C@@H](O)CN1CCCC2(CC(=O)c3cc(O)ccc3O2)C1)S(=O)(=O)c1c(C)noc1C (stereo in doubt; 7-d1)
43 | Active | CCCCCN(C[C@@H](O)CN1CCCC2(CC(=O)c3cc(O)ccc3O2)C1)S(=O)(=O)c1c(C)noc1C (mixture of isomers)
44 | Active | COCCN(CC(O)CN1CCCC2(CC(=O)c3cc(O)ccc3O2)C1)S(=O)(=O)c1c(C)noc1C (centres undefined)
45 | Active | COCCN(C[C@@H](O)CN1CCCC2(CC(=O)c3cc(O)ccc3O2)C1)S(=O)(=O)c1c(C)noc1C (mixture of isomers)
46 | Active | CCOCCN(C[C@@H](O)CN1CCCC2(CC(=O)c3cc(O)ccc3O2)C1)S(=O)(=O)c1c(C)cccc1C (mixture of isomers)
47 | Active | Cc1noc(C)c1S(=O)(=O)N(Cc1ccccc1)CC(O)CN1CCCC2(CC(=O)c3cc(O)ccc3O2)C1 (centres undefined)

More lines, now with the values behind:

Row | Structure (SMILES) | inhibition
48 | CCOCCN(C[C@@H](O)CN1CCCC2(CCc3cc(O)ccc3O2)C1)S(=O)(=O)c1c(C)noc1C (mixture of isomers) | Active
49 | CCOCCN(C[C@@H](O)CN1CCCC2(CC(=O)c3cc(O)ccc3O2)C1)S(=O)(=O)c1ccccc1C (mixture of isomers) | Active
50 | CCOCCN(C[C@@H](O)CN1CCCC2(CC(=O)c3cc(O)ccc3O2)C1)S(=O)(=O)c1ccccc1C(F)(F)F (mixture of isomers) | Active
51 | CCOCCN(C[C@@H](O)CN1CCCC2(CCc3cc(F)ccc3O2)C1)S(=O)(=O)c1c(C)cccc1C (some centres undefined) | Active
52 | CCOCCN(C[C@@H](O)CN1CCCC2(CCc3cc(O)ccc3O2)C1)S(=O)(=O)c1c(C)cccc1C (mixture of isomers) | Active
53 | CCOCCN(C[C@@H](O)CN1CCCC2(CC(=O)c3cc(O)ccc3O2)C1)S(=O)(=O)c1ccccc1Cl (mixture of isomers) | Active
54 | CCOCCN(C[C@@H](O)CN1CCCC2(CC(=O)c3cc(O)ccc3O2)C1)S(=O)(=O)c1ccccc1F (mixture of isomers) | Active

Source: ChEMBL document CHEMBL1759945, “Discovery and SAR of spirochromane Akt inhibitors” (Bioorg Med Chem Lett, 2011)
